Calls of active or inactive are those of the source.
Legend:
Streptokinase A = molecular target: T1, Streptokinase A (Streptococcus pyogenes serotype M1, UniProt P10520); experiment: Absorbance Microorganism-Based Dose Response Follow up to Identify Inhibitors of Streptokinase Expression. [Related pubchem assays: 1677 (Project Summary), 1915, 1914, 1902 (Retest at Dose), 1900 (Counter Screen), 1662 (Primary HTS)]; format: functional, Streptococcus pyogenes M1 GAS
T1 sequence (P10520 whole entry): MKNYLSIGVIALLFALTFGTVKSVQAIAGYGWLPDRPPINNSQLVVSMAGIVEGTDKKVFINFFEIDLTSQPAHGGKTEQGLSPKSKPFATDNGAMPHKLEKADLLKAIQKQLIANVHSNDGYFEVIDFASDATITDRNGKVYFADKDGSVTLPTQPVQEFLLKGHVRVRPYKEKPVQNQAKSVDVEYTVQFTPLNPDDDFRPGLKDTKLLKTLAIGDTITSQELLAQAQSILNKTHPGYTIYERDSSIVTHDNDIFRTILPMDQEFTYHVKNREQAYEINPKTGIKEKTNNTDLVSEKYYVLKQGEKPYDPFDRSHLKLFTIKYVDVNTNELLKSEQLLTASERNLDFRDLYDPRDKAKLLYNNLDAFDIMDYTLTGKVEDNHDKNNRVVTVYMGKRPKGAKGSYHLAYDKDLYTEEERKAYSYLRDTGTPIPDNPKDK

Streptococcus = experiment: Streptococcus pyogenes growth inhibition counter-screen, dose response, counter-screen for streptokinase expression inhibitor project, luminescence, BacTiter-Glo, strain UMAA2166 (AID 2477); format: functional, organism-based
[1] = Luminescence Cell-Based Dose Confirmation HTS to Identify Inhibitors of Polyadenylation.; format: functional
Genome polyprotein [2] = molecular target: Genome polyprotein (dengue virus type 2, UniProt P29990); experiment: Dengue-2 NS5 methyltransferase inhibitors, primary screen, biochemical, confirmation dose response (AID 588689); format: functional
[3] = molecular target: T2, Induced myeloid leukemia cell differentiation protein Mcl-1 (Homo sapiens, UniProt Q07820); experiment: MCL1-BIM BH3 interaction inhibitors, dose response, biochemical, fluorescence polarization, BIM-BH3 peptide, 1536-well (AID 2217)
T2 sequence (Q07820 whole entry): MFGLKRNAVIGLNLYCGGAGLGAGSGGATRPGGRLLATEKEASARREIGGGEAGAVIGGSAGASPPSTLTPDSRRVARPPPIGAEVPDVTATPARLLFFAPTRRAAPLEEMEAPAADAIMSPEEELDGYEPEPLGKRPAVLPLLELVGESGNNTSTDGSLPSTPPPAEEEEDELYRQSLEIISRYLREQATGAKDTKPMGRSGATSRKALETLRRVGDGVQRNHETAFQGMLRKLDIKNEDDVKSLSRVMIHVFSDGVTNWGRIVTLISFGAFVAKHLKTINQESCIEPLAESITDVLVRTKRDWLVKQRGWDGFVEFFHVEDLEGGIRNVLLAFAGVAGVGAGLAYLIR

Caspase-6 = molecular target: T3, Caspase-6 (Homo sapiens, UniProt P55212); experiment: human caspase-6 inhibitors, dose response, biochemical, VEID-R110 fluorescence, cherry-pick (AID 720632)
T3 sequence (P55212 whole entry): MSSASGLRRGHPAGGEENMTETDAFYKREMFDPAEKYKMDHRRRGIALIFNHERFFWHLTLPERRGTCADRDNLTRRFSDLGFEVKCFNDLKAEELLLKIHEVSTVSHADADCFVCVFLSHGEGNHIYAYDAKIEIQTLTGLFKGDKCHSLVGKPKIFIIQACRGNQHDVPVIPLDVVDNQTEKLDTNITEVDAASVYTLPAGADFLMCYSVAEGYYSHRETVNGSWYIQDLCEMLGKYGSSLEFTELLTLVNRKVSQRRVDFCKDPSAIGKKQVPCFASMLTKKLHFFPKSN

Bcl-2-like protein 1 = Bcl-2-like protein 1 (Homo sapiens, UniProt Q07817); experiment: BCL-XL inhibitors, dose response, selectivity assay for MCL1 inhibitor project, biochemical, fluorescence polarization, 1536-well (AID 2218)
Bcl-2-like protein 10 [4] = molecular target: T4, Bcl-2-like protein 10 (Homo sapiens, UniProt Q9HD36); experiment: Biochemical TR3 FP assay of Bcl-B inhibitor potency, EC50 (AID 1243); format: functional
T4 sequence (Q9HD36 whole entry): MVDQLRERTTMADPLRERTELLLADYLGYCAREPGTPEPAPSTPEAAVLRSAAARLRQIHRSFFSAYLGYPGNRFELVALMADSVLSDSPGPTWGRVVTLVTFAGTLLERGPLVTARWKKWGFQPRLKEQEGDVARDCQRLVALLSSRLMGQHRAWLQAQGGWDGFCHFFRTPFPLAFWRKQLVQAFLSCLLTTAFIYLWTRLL

[5] = enhancers of respiration in Yfh1-depleted yeast, dose response, Friedreich's ataxia, plus single-dose screen (AID 1465); format: functional;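 also: yeast depleted of Yfh1p frataxin homolog grown on glycerol needing respiration; WST-1 tetrazolium dye reduction as measure of cellular dehydrogenase metabolic activity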
[6] = molecular target: 72 kDa type IV collagenase (Homo sapiens, UniProt P08253); experiment: Dose Response validation of uHTS RPN11 inhibitor hits using a MMP-2 Fluorescence assay.; format: functional
[7] = molecular target: 26S proteasome non-ATPase regulatory subunit 14 (Homo sapiens, UniProt O00487); experiment: inhibition of proteasome subunit RPN11 – biochemical, fluorescence polarization, uHTS hits, confirmation (AID 602368); format: functional
Prothrombin = Prothrombin (Bos taurus, UniProt P00735); experiment: thrombin inhibition, dose response, biochemical, fluorescence polarization, uHTS hits (AID 602369); format: functional
[8] = molecular target: FAD-linked sulfhydryl oxidase ALR (Homo sapiens, UniProt P55789); experiment: inhibitors of human ALR sulfhydryl oxidase, dose response, biochemical, H2O2 detection, luminescence, cherry-pick (AID 493248)
FAD-linked sulfhydryl oxidase ALR, sequence (P55789 whole entry): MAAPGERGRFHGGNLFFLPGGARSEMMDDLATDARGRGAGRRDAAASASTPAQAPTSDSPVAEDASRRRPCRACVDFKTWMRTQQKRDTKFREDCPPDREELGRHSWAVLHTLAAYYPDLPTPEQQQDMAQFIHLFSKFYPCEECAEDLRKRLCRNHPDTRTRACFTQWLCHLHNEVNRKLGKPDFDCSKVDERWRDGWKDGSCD

Aminopeptidase N = molecular target: T5, Aminopeptidase N (Plasmodium falciparum FcB1/Columbia, UniProt O96935); experiment: P. falciparum M1AAP inhibitors, biochemical, fluorogenic H-Leu-NHMec substrate, 1536-well (AID 1445); set-up: species or system Plasmodium falciparum 3D7, 3D7
T5 sequence (O96935 whole entry): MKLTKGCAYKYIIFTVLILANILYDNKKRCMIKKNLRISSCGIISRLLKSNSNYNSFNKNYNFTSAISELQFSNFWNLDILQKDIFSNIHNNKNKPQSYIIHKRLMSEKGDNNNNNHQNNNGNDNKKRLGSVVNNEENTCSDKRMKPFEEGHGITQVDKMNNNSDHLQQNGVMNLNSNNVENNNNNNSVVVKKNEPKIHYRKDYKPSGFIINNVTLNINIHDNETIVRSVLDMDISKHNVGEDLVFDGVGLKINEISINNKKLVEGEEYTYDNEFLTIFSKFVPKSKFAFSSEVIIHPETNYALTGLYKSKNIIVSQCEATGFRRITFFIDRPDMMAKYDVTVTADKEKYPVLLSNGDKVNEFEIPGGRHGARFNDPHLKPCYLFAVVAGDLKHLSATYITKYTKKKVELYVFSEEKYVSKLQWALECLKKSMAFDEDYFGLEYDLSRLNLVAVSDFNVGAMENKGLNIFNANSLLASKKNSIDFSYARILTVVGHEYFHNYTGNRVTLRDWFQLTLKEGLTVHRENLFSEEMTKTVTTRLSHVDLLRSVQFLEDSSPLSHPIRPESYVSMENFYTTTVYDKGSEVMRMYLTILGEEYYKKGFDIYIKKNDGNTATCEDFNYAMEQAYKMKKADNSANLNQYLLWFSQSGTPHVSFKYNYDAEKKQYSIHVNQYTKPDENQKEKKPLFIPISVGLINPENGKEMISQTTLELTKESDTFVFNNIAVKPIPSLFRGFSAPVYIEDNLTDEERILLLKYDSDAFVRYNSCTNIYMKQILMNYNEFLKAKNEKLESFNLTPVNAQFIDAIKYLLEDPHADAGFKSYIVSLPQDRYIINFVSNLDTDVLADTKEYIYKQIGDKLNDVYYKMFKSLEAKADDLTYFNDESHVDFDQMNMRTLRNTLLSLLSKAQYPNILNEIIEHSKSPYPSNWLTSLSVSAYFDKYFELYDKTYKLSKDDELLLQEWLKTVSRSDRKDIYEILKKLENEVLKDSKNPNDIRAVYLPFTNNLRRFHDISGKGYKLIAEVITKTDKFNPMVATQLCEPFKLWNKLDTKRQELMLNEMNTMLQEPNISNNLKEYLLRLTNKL

Ion channel NompC = Ion channel NompC (Danio rerio, UniProt Q7T1G6); experiment: Fluorescence counterscreen assay for TRPML3 agonists: dose response cell-based high-throughput screening assay to identify agonists of the transient receptor potential channel N1 (TRPN1). [Related pubchem assays: 1526, 1424, 1448 ]; format: functional
Mucolipin-3 = Mucolipin-3 (Homo sapiens, UniProt Q8TDD5); experiment: Dose response cell-based high-throughput screening assay for agonists of the transient receptor potential channel ML3 (TRPML3). [Related pubchem assays: 1526, 1424, 1448 ]; format: functional
[9] = molecular target: Protein-tyrosine kinase 2-beta (Homo sapiens, UniProt Q14289);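 also: potency of inhibitors of PYK2 kinase phosphorylation of poly-GT substrate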
SUMO-activating enzyme [10] = molecular target: T6, SUMO-activating enzyme (Homo sapiens, UniProt Q9UBT2); experiment: inhibitors of in vitro SUMOylation cascade, primary screen, biochemical, HTRF, uHTS (AID 2006); format: protein-complex assay
T6 sequence (Q9UBE0 whole entry): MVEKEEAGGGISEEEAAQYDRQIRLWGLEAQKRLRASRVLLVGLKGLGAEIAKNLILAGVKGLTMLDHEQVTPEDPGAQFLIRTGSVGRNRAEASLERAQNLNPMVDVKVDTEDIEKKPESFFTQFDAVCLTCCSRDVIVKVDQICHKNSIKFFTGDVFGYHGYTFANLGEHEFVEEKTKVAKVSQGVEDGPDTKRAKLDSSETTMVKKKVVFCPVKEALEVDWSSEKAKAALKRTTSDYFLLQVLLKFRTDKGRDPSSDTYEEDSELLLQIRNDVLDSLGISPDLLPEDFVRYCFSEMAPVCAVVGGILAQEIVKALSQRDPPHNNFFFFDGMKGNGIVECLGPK
T6 sequence (Q9UBT2 whole entry): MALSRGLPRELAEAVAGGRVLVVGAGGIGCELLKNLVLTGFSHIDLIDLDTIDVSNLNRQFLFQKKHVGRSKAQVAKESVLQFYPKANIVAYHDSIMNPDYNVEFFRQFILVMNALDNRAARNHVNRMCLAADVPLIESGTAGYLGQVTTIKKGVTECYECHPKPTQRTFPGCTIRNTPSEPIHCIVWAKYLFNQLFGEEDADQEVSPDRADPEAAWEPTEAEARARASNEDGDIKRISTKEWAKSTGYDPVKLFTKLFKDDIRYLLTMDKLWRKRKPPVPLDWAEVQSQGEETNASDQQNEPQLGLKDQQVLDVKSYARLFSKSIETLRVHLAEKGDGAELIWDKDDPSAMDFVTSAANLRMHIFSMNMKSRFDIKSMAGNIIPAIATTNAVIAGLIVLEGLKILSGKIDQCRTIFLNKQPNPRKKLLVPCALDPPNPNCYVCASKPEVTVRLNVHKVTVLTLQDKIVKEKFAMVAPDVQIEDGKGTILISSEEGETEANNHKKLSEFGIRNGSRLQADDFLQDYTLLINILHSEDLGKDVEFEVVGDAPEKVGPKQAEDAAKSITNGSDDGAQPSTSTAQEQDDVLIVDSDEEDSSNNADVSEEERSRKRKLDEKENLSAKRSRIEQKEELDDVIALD

[11] = molecular target: T7, Voltage-gated N-type calcium channel alpha-1B subunit/Amyloid beta A4 precursor protein-binding family A member 1 (Homo sapiens, UniProt Q00975+Q02410); experiment: disruptors of Mint-PDZ/N-type channel peptide interaction – biochemical, HTRF, SAR follow-up (AID 2489); format: functional
T7 sequence (Q00975 whole entry): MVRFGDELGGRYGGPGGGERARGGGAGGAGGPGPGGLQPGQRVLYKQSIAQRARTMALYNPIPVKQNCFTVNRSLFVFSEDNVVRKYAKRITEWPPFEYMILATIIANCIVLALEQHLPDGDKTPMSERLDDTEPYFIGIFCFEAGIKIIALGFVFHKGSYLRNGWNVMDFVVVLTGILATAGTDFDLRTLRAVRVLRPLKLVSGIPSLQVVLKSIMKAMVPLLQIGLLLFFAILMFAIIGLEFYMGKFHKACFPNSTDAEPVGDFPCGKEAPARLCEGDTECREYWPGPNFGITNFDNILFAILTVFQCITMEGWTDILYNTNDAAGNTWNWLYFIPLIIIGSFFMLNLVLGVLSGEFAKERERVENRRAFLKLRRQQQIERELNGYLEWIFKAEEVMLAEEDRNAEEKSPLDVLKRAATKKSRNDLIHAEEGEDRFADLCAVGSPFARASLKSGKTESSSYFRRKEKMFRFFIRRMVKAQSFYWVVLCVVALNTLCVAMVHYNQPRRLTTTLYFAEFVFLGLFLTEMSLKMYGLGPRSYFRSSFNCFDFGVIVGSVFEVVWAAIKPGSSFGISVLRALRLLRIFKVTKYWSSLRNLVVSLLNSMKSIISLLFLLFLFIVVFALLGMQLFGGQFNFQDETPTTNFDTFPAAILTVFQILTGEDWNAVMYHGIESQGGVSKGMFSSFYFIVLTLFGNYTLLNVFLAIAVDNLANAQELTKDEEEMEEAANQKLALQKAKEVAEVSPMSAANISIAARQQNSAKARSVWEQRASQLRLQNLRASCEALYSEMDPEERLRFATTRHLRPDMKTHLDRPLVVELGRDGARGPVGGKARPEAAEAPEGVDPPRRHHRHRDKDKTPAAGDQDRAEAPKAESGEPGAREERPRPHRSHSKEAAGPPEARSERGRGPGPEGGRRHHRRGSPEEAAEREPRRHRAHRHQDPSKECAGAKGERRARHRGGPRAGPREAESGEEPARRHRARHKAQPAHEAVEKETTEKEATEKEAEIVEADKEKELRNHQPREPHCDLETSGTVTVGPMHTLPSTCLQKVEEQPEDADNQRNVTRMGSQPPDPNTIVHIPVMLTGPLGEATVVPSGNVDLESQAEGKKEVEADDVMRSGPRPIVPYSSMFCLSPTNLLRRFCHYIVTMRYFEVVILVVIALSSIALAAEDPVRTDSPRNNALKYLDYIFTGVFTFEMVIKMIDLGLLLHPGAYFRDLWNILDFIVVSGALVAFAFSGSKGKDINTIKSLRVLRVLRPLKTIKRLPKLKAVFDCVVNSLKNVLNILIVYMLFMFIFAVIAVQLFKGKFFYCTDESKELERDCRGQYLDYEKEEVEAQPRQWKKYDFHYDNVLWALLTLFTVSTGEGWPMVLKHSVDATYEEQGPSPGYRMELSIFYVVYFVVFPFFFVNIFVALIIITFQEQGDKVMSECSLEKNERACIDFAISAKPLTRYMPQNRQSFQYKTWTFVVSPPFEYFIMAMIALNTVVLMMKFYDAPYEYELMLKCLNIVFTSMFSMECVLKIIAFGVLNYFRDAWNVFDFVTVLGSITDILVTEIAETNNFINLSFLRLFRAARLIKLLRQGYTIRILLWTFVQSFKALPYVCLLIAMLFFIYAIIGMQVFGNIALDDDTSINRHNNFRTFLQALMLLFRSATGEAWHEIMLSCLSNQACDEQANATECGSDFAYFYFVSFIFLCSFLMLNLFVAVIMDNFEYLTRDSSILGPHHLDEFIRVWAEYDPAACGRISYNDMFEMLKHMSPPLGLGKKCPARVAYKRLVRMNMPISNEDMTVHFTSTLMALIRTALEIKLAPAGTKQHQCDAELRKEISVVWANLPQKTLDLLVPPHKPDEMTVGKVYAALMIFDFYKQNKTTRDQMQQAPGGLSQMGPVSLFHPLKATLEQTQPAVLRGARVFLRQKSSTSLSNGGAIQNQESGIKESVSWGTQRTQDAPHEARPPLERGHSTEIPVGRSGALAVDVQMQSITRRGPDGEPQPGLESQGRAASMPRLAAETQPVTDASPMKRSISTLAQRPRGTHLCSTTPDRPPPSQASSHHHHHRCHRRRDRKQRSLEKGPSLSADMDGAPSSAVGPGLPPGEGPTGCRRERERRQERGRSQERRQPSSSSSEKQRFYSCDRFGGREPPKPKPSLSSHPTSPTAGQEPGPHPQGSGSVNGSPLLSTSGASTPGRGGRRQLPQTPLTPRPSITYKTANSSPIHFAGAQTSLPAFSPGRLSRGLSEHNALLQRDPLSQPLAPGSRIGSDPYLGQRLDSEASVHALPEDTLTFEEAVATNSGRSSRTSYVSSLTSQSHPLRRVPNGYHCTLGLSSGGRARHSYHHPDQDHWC
T7 sequence (Q02410 whole entry): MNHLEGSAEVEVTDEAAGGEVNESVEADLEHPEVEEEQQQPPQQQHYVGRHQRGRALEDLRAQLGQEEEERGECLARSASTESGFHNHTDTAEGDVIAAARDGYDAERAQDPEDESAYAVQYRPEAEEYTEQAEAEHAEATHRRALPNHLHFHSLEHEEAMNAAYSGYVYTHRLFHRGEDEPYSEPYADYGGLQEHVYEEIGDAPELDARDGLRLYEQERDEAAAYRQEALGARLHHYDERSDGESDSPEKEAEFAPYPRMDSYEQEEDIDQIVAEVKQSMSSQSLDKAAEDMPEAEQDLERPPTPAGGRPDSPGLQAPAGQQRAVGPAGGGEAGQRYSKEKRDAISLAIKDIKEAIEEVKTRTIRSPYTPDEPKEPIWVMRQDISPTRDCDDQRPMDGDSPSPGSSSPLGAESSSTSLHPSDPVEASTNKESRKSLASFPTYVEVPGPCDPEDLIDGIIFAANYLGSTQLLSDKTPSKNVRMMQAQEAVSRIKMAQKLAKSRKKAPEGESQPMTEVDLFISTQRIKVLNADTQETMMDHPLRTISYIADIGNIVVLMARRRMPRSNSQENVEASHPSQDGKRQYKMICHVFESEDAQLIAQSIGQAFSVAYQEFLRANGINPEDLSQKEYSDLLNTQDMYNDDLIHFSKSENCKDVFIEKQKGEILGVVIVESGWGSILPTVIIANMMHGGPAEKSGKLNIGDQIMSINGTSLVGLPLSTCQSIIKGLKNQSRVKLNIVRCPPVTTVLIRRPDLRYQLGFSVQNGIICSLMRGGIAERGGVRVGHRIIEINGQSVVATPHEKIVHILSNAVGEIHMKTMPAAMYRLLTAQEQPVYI

Protein Tat = molecular target: T8, Protein Tat (Human immunodeficiency virus type 1 group M subtype B (isolate HXB2)(HIV-1), UniProt P04608); format: functional;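 also: tat binding to TAR RNA read out by fluorescence polarization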
T8 sequence (P04608 whole entry): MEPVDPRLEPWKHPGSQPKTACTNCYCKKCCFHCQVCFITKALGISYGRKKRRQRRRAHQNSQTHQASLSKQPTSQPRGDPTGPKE

Genome polyprotein [12] = molecular target: Genome polyprotein (Hepatitis C virus, UniProt Q2Q167); experiment: HCV core protein dimerization inhibitors, dose response, biochemical, TR-FRET (AID 2159); set-up: species or system Hepacivirus hominis;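 also: blocks dimerization of HCV core protein measured by TR-FRET between tagged core106 pairs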
Genome polyprotein (Hepatitis C virus, UniProt Q2Q167), sequence (Q2Q167 whole entry): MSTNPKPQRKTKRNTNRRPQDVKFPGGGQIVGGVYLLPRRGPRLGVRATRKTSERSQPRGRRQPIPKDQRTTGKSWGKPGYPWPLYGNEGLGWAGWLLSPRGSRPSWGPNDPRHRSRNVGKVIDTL

[13] = molecular target: DNA (cytosine-5)-methyltransferase 1 (Homo sapiens, UniProt P26358); experiment: DNMT1 methyltransferase inhibitors, confirmation, biochemical, fluorescent molecular beacon (AID 602386); format: functional
[14] = THP-1 cell cytotoxicity, dose response, cytotoxicity control for Vif-APOBEC3G degradation inhibitor project, THP-1 cells (AID 1117359); format: functional; settings: Human immunodeficiency virus 1, THP-1
Bcl-2-like protein 10 [15] = molecular target: T4, Bcl-2-like protein 10; experiment: displacers of TR3 peptide from Bcl-B, primary screen, selectivity assay for Bfl-1 inhibitor project, biochemical, fluorescence polarization, FITC-TR3 peptide (AID 748);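 also: fluorescence polarization from a fluorescein-labelled TR3 peptide binding purified Bcl-B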
[16] = molecular target: T2, Induced myeloid leukemia cell differentiation protein Mcl-1; format: functional
SUMO E1/E2 = SUMO E1/E2 (Homo sapiens, UniProt P63279+Q9UBE0+Q9UBT2); experiment: SAR analysis of SUMOylation using HTRF in an in-Vitro dose response assay. [Related pubchem assays (depositor defined):AID2006, AID2011, AID2018, AID2069, AID2658]; format: functional
SUMO-activating enzyme [17] = molecular target: T6, SUMO-activating enzyme; experiment: SUMOylation inhibitor hit validation, confirmation, SUMOylation inhibitor project, biochemical, AlphaScreen (AID 2018); format: functional
[18] = molecular target: T7, Voltage-gated N-type calcium channel alpha-1B subunit/Amyloid beta A4 precursor protein-binding family A member 1; experiment: disruptors of Mint-PDZ/N-type channel peptide interaction – biochemical, HTRF, set 2, SAR follow-up (AID 434980); format: functional
[19] = HEp-2 cell cytotoxicity, dose response, cytotoxicity control for RSV inhibitor project, HTS (AID 2410); format: functional; settings: human respiratory syncytial virus
[20] = molecular target: Epstein-Barr nuclear antigen 1 (Epstein-Barr virus (strain B95-8) (HHV-4) (Human herpesvirus 4), UniProt P03211); experiment: EBNA-1 inhibitors, dose response, biochemical, fluorescence polarization, 1536-well (AID 2381); set-up: species or system human gammaherpesvirus 4;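 also: fluorescence polarization of a Cy5 DNA probe bound by EBNA-1 protein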
[21] = molecular target: Lytic switch protein BZLF1 (Epstein-Barr virus (strain B95-8) (HHV-4) (Human herpesvirus 4), UniProt P03206); experiment: EBV ZTA inhibitors, dose response, counter-screen for EBNA-1 inhibitor project, biochemical, fluorescence polarization, Epstein-Barr virus, 1536-well (AID 2377); set-up: species or system human gammaherpesvirus 4;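 also: fluorescence polarization of Cy5-labelled ZRE DNA probe bound by purified Zta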

SMILES: N#Cc1cc(NC(=O)c2ccc(Cl)cc2)ccc1Sc1ccccc1
- EC50 (Streptokinase A): 3.25 µM (active)
- EC50 (Streptococcus): 98.8 µM (active)

SMILES: CC(C)CC(Nc1ncnc2scc(-c3ccccc3)c12)C(=O)O (centres undefined)
- EC50 [1]: > 120 µM (not active)

SMILES: O=C(O)CN1C(=O)/C(=C\c2cc([N+](=O)[O-])ccc2OCc2ccccc2Cl)SC1=S
- IC50 (Genome polyprotein [2]): 31.1 µM (active)
- IC50 [3]: > 109 µM (not active)
- AC50 (Caspase-6): 12.9 µM (active)
- IC50 (Bcl-2-like protein 1): > 109 µM (not active)

SMILES: O=C(O)C1C2CC=CC2c2cc(Oc3ccccc3)cc3c2N1CC1CC=CC31 (centres undefined)
- EC50 (Bcl-2-like protein 10 [4]): 4.13 µM (active)

SMILES: CCn1c(C)cc(/C=C2/SC(=S)N(CC(=O)O)C2=O)c1C
- EC50 [5]: > 100 µM (active)
- IC50 [6]: > 100 µM (inactive)
- IC50 [7]: 28.6 µM (active)
- IC50 (Prothrombin): 32.9 µM (active)
- AC50 [8]: 0.776 µM (active)
- IC50 (Aminopeptidase N): 75.5 µM (active)

SMILES: S=C(NC1CCCCC1)N1CCOCCOCCN(C(=S)NC2CCCCC2)CCOCC1
- EC50 (Ion channel NompC): > 29.9 µM (not active)
- EC50 (Mucolipin-3): 20.4 µM (not active)

SMILES: COc1ccccc1CNC(=O)COC(=O)c1cc(-c2ccco2)nc2ccccc12
- IC50 [9]: 5.79 µM (active)
- IC50 (SUMO-activating enzyme [10]): 10.6 µM (active)
- IC50 [11]: 22.7 µM (active)
- IC50 (Protein Tat): > 100 µM (active)
- IC50 (Genome polyprotein [12]): > 49.8 µM (not active)
- IC50 [13]: 7.11 µM (active)
- CC50 [14]: > 40 µM (active)
- IC50 (Bcl-2-like protein 10 [15]): 10.7 µM (active)
- IC50 [16]: 2.04 µM (active)
- IC50 (SUMO E1/E2): 5.8 µM (active)
- IC50 (SUMO-activating enzyme [17]): 5.42 µM (active)
- IC50 [18]: 7.83 µM (active)

SMILES: CCn1nc(C)c(CN2CCCC(CO)(Cc3ccccc3)C2)c1C (centres undefined)
- IC50 (cells): 42.9 µM (active)
- CC50 [19]: > 50 µM (active)

SMILES: COc1ccccc1C(=O)Nc1ccc(-c2nnn(CC(=O)NCc3ccco3)n2)cc1
- IC50 (SUMO-activating enzyme [10]): 11.8 µM (active)
- IC50 [20]: > 0.608 µM (active)
- IC50 [21]: > 111 µM (not active)
- IC50 (SUMO-activating enzyme [17]): 27.2 µM (active)

Source: ChEMBL document CHEMBL1201862, “PubChem BioAssay data set” (2004)
